Results published in patent US12600732B2, “Bifunctional compounds for degrading BTK via ubiquitin proteosome pathway” (NURIX THERAPEUTICS, INC., priority 2019, dated 2026).
pEC50: −log10 of the molar value.

Legend:
BTK = biological target: T1, BTK (Mus musculus, UniProt P35991); assay: In vivo degradation of BTK in mouse PD experiments with oral dosing
T1 construct: from tissue; host or cells: mouse blood B cells / splenocytes (CD-1 or BALB/c)
Method: A method of determining the pharmacodynamic profile of BTK degraders was performed by dosing either CD-1 or BALB/c mice with CTM. The CTM was prepared in a suitable formulation and was administered via oral gavage (PO) at a suitable dose level and frequency as informed by prior pharmacokinetic and tolerability studies. Following administration of CTM, BTK levels in blood or splenocytes are measured using flow cytometry or HTRF. For assessment of BTK levels via flow cytometry, either whole blood or splenocytes were first treated with ACK RBC lysis buffer to facilitate lysing of red blood cells. Remaining cells were then stained with fluorophore-conjugated antibodies against CD45, TCR beta and CD45R (B220). Cell pellets were washed with 1×PBS, fixed, and permeabilized for twenty-four hours with Foxp3/Transcription Factor Fixation/Permeabilization Kit. Cells were then stained intracellularly with unconjugated BTK antibody and detected with a fluorophore-conjugated secondary antibody. Stained cells were run on an Attune N×T Acoustic Focusing Flow Cytometer (Thermo-Fisher A29004), and data was analyzed using FlowJo (v10.5.3) and GraphPad Prism (v7.00) software. Lymphocytes were gated for B cells defined as CD45+ TCR beta−B220+ and T cells as CD45+ TCR beta+B220−. The BTK geometric mean fluorescence intensity (MFI) was calculated for B and T cells. Percent BTK degradation for each compound-treated sample was calculated using the equation described below: % Degradation=100*(Treated sample B cell BTK MFI-treated sample T cell BTK MFI)/Vehicle B cell BTK MFI-Vehicle T cell BTK MFI)
This example evaluates in vivo activity of BTK CTMs via a direct mouse PD measurement following oral dosing
Screens were completed at 90 mg/kg for six hours, and then changed to lower doses/longer time points after seeing strong BTK degradation activity with an initial set of compounds. This assay was useful in selecting compounds for in vivo efficacy experiments.

primary human T cells [1] = assay: T cell activation assay, IL-2 secretion (ELISA); type: cell-based; conditions: for IL-2 secretion compared to baseline (anti-CD3/anti-CD28 stimulation alone): primary human T cells
Method: (§1) This example evaluates whether CTMs with IMiD activity affect T cell activation. […] These assays were performed to assess whether BTK CTMs with and without IMiD activity affected activation of primary human T cells after stimulation of the T cell receptor with anti-CD3/ati-CD28 stimulation. T cell activation was measured by IL-2 secretion (ELISA assay) and upregulation of activation markers CD25 and CD69 on the surface of T cells (flow cytometry). Data are presented as the fold-change of response relative to baseline (stimulation with anti-CD3/anti-CD28 stimulation in the absence of compound).

primary human T cells [2] = assay: T cell activation assay, CD25 and CD69 staining (flow cytometry); type: cell-based; conditions: for CD25 Staining Anti-CD3/Anti-CD28 Stimulation / CD69 Staining Anti-CD3/Anti-CD28 Stimulation: fold-change of response relative to baseline; for expression of CD25 and CD69 compared to baseline (anti-CD3/anti-CD28 stimulation alone): primary human T cells
Method: as §1

TMD8 C481S cells = assay: Cell viability assay (CellTiter-Glo), TMD8 C481S cells; conditions: for pEC50: Homo sapiens, TMD8, 72 h; for EMAX (% viable cells): TMD8 C481S cells, treatment time 72 h
[3] = PK data for BTK CTMs (in vivo plasma concentrations); conditions: Mouse Balb/c
Excerpt: The present example evaluates in vivo plasma concentrations of BTK CTMs to develop PK-PD-efficacy relationship and predict human exposure.

TMD8 cells = assay: Cell viability assay (CellTiter-Glo), TMD8 cells; conditions: for pEC50: Homo sapiens, TMD8, 72 h; for EMAX (% viable cells): TMD8 cells, treatment time 72 h
Method: Cell viability was determined using CellTiter-Glo 2.0 Luminescent Cell Viability Assay (Promega, G9242), which quantitates the amount of ATP present as a proxy for the number of viable cells in culture. Cells were plated with densities between 2000-4000 cells per well in 96-well plates. […] CellTiter-Glo reagent was added to cells at a dilution of 1:20, and the plate was incubated ten minutes at room temperature prior to reading the luminescence signal using an EnVision plate reader. Controls included cells treated with DMSO and wells that contained no cells, only media. Background luminescence signal was determined by control wells containing no cells, only media, and was then subtracted from all sample wells. Luminescence values were then normalized to DMSO-treated wells and reported at proportion viable cells.
Here, the ability of CTMs to affect viability in BTK-dependent cell lines was assessed.

[4] = 1.4 nM, fold-change of response relative to baseline
[5] = 37 nM, fold-change of response relative to baseline
[6] = 333 nM, fold-change of response relative to baseline (stimulation without compound)
[7] = oral dose 3 mg/kg, 6 h, blood, flow cytometry

T1 sequence (P35991 whole entry): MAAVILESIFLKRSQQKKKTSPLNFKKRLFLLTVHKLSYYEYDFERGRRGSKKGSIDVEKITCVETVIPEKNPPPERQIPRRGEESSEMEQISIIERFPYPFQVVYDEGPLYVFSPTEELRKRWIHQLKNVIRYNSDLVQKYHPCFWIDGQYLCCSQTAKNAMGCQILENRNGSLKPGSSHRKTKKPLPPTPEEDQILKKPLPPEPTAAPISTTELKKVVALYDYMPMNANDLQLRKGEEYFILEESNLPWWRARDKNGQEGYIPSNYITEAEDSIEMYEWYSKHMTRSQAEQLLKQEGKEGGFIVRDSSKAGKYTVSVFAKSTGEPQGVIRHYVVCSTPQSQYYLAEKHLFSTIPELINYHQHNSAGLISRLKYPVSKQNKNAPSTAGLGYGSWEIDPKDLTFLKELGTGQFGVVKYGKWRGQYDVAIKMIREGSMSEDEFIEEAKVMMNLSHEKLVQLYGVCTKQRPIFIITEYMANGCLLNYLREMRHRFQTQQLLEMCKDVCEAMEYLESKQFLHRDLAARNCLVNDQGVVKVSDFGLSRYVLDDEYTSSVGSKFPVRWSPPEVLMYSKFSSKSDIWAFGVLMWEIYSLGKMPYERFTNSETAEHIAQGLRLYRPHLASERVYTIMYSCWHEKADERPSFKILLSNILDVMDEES

Row | SMILES | IL-2 Secretion Anti-CD3/Anti-CD28 Stimulation (primary human T cells [1]; [4]) | IL-2 Secretion Anti-CD3/Anti-CD28 Stimulation (primary human T cells [1]; [5]) | IL-2 Secretion Anti-CD3/Anti-CD28 Stimulation (primary human T cells [1]; [6]) | CD25 Staining Anti-CD3/Anti-CD28 Stimulation (primary human T cells [2]; 1.4 nM) | CD69 Staining Anti-CD3/Anti-CD28 Stimulation (primary human T cells [2]; 1.4 nM) | CD25 Staining Anti-CD3/Anti-CD28 Stimulation (primary human T cells [2]; 37 nM) | CD69 Staining Anti-CD3/Anti-CD28 Stimulation (primary human T cells [2]; 37 nM) | CD25 Staining Anti-CD3/Anti-CD28 Stimulation (primary human T cells [2]; 333 nM) | CD69 Staining Anti-CD3/Anti-CD28 Stimulation (primary human T cells [2]; 333 nM) | further results
1 | CN1CCN([C@@H]2CCCN(c3cnc(C(N)=O)c(Nc4ccc(N5CC6(C5)CN(c5ccc7c(c5)C(=O)N(C5CCC(=O)NC5=O)C7=O)C6)cc4)n3)C2)C1=O (stereo partly drawn) [Compound 34, 3-((4-(6-(2-(2,6-dioxopiperidin-3-yl)-1,3-dioxoisoindolin-5-yl)-2,6-diazaspiro[3.3]heptan-2-yl)phenyl)amino)-5-((R)-3-(3-methyl-2-oxoimidazolidin-1-yl)piperidin-1-yl)pyrazine-2-carboxamide] | 1.48 | 1.66 | 1.58 | 1.21 | 1.14 | 1.31 | 1.21 | 1.25 | 1.23 | % BTK Remaining (BTK; oral dose 1 mg/kg, 6 h, splenocytes, HTRF): 75%
2 | CN1CCN([C@@H]2CCCN(c3cnc(C(N)=O)c(Nc4ccc(OCCCNc5ccc6c(c5)C(=O)N(C5CCC(=O)NC5=O)C6=O)cc4)n3)C2)C1=O (stereo partly drawn) [Compound 64] | 1.28 | 1.80 | 1.48 | 1.17 | 1.14 | 1.04 | 1.14 | 0.34 | 0.64 | 
3 | CN1CCN([C@@H]2CCCN(c3cnc(C(N)=O)c(Nc4ccc(C5CCN(C6CN(Cc7ccc8c(c7)CN(C7CCC(=O)NC7=O)C8=O)C6)CC5)cc4)n3)C2)C1=O (stereo partly drawn) [Compound 86] |  |  |  |  |  |  |  |  |  | % BTK Remaining (BTK; [7]): 56%; % BTK Remaining (BTK; oral dose 3 mg/kg, 24 h, blood, flow cytometry): 70%; pEC50 (TMD8 C481S cells): 8.32; EMAX (% viable cells) (TMD8 C481S cells): 30%; AUC ([3]; 1 mg/kg IV): 0.5 µM·h; clearance ([3]; 1 mg/kg IV): 35 mL/min/kg; Vd ([3]; 1 mg/kg IV, read-out: Volume of Distribution): 7.7 L/kg; AUC ([3]; 30 mg/kg PO): 0.34 µM·h; bioavailability ([3]; 30 mg/kg PO): 2%; pEC50 (TMD8 cells): 9.17; EMAX (% viable cells) (TMD8 cells): 27%
4 | CN1CCN([C@H]2CCCN(c3cnc(C(N)=O)c(Nc4ccc5c(c4)CCN(CC4CN(c6ccc7c(c6)C(=O)N(C6CCC(=O)NC6=O)C7=O)C4)C5)n3)C2)C1=O (stereo partly drawn) [Compound 92] | 1.53 | 2.19 | 1.63 | 1.14 | 1.09 | 1.21 | 1.29 | 1.06 | 1.35 | 
5 | CN1CCN([C@@H]2CCCN(c3cnc(C(N)=O)c(Nc4ccc(C5CCN(C[C@H]6CC[C@H](Nc7cccc8c7C(=O)N(C7CCC(=O)NC7=O)C8=O)CC6)CC5)cc4)n3)C2)C1=O (stereo partly drawn) [Compound 154] | 1.77 | 3.38 | 3.45 | 1.23 | 1.18 | 1.36 | 1.29 | 1.13 | 1.16 | 
6 | CN1CCN([C@@H]2CCCN(c3cnc(C(N)=O)c(Nc4ccc(C5CCN(CCCNc6cccc7c6C(=O)N(C6CCC(=O)NC6=O)C7=O)CC5)cc4)n3)C2)C1=O (stereo partly drawn) [Compound 155] | 1.62 | 3.13 | 3.11 | 1.31 | 1.25 | 1.46 | 1.34 | 1.21 | 1.20 | 
7 | Nc1cccc2c1CN(C1CCC(=O)NC1=O)C2=O (stereo not drawn) [Lenalidomide, lenalidomide, reference compound] | 1.63 | 4.48 | 8.67 | 1.26 | 1.20 | 1.73 | 1.49 | 1.93 | 1.81 | IL-2 secretion compared to baseline (anti-CD3/anti-CD28 stimulation alone) (primary human T cells [1]): induce IL-2 secretion; expression of CD25 and CD69 compared to baseline (anti-CD3/anti-CD28 stimulation alone) (primary human T cells [2]): increase expression
8 | Nc1cccc2c1C(=O)N(C1CCC(=O)NC1=O)C2=O (stereo not drawn) [Pomalidomide, pomalidomide, reference compound] | 1.31 | 4.80 | 5.50 | 1.03 | 1.01 | 1.39 | 1.33 | 1.63 | 1.77 | IL-2 secretion compared to baseline (anti-CD3/anti-CD28 stimulation alone) (primary human T cells [1]): induce IL-2 secretion; expression of CD25 and CD69 compared to baseline (anti-CD3/anti-CD28 stimulation alone) (primary human T cells [2]): increase expression
9 | Cn1cc(Nc2nc(N3CCC[C@@H](N4CC5(CN(CC6CCN(c7ccc8c(c7)C(=O)N(C7CCC(=O)NC7=O)C8=O)CC6)C5)OC4=O)C3)cnc2C(N)=O)cn1 (stereo partly drawn) [compound 211, 5-[(3R)-3-[2-({1-[2-(2,6-dioxopiperidin-3-yl)-1,3-dioxoisoindol-5-yl]piperidin-4-yl}methyl)-6-oxo-5-oxa-2,7-diazaspiro[3.4]octan-7-yl]piperidin-1-yl]-3-[(1-methylpyrazol-4-yl)amino]pyrazine-2-carboxamide] |  |  |  |  |  |  |  |  |  | % BTK Remaining (BTK; [7]): 74%; pEC50 (TMD8 C481S cells): 6.95; EMAX (% viable cells) (TMD8 C481S cells): 28%; pEC50 (TMD8 cells): 7.93; EMAX (% viable cells) (TMD8 cells): 30%
